The values below come from a melting point compilation (Tetko et al.; mined from patent text by program, amines drawn as free bases though some values may be those of a salt).

Each structure is given as a SMILES string.

In general, melting point refers to the temperature, or range, at which the solid turns liquid. In turn, `C[C@H](CSC(=O)C(C)(C)C)C(=O)N(CC(=O)OC(C)(C)C)C1CCCC1` came in with a melting point of 58 °C.

In turn, `CC(C)C1NC(=O)CN1C(=O)C(Cl)Cl` (stereo not given) registered a melting point of 172 to 173 °C.

Consider `Clc1ccc(C2(Cn3ccnc3)OC2c2ccc(Cl)cc2Cl)cc1` (stereo not given), for which the melting point lay in the range of 102 to 103 °C.

Regarding `O=C(N[C@@H](CCCCNSc1ncccc1[N+](=O)[O-])C(=O)N[C@H](CCC(=O)N1c2ccccc2C[C@H]1C(=O)O)C(=O)O)OCc1ccc2c(c1)OCO2`, the melting point was in the range of 100 to 110 °C.

With `CCOC(=O)N=C(OCC)c1ccccc1Cl`, the melting point was 65 to 66 °C.

Take `CON(C)C(=O)C(CO[Si](C)(C)C(C)(C)C)NC(=O)OC(C)(C)C` (stereo not given): the melting point is 71 to 72 °C.

`O=C(O)C1CCc2c(c3ccccc3n2Cc2ccccc2)C1` (stereo not given) returned a melting point of 195 to 196 °C.

Take `CCCc1nn(-c2ccc(C(F)(F)F)cn2)cc1CCCOc1ccc(CCC(=O)O)c(OCC)c1`: the melting point was 119 to 120 °C.

Compound `CC(=O)c1ccc(SCc2cc3c(cc2O)CCCO3)cc1` gave a melting point of 192 to 193 °C.

In turn, `CCCCc1cc2ccccc2c(Oc2ccc(/C=C/C(=O)O)cc2)c1-c1ccc(OC)cc1` yielded a melting point of 186 to 187 °C.

For the compound `O=C1N(Cc2ccccn2)c2ccc(Br)cc2C12COc1cc3c(cc12)OCCO3` (stereo not given), the melting point was greater than 250 °C.

Turning to `CCCCCCc1ccc(CCCCC(N)(CO)CO)cc1`, the melting point lay in the range of 99 to 102 °C.

The compound `NC(=O)c1ccc(Oc2nccc(-c3c(-c4ccc(F)cc4)ncn3C3CCNCC3)n2)cc1` gave a melting point of 229 to 230 °C.

With `Clc1cc(Cl)cc(-c2nc(-c3ccccn3)no2)c1`, the melting point lay within 162 to 166 °C.

For the compound `O=C(O)c1cn(C2CC2)c2c(F)c(N3CCC(n4cc(-c5ccccc5)nn4)C3)c(F)cc2c1=O` (stereo not given), the melting point came out at 241 °C.

For `COC(=O)c1cncc(OCc2nc(-c3ccccc3)oc2C)c1`, the melting point lay within 119 to 120 °C.

Consider `Cc1ccccc1-c1c(NC(=O)Nc2ccc(F)cc2F)c(=O)oc2ccc(C)c(C)c12`, for which the melting point is 232 to 234 °C.

The compound `CC1(C)CCC(C)(C)c2cc(-c3cc(-c4ccc(C(=O)O)cc4)ccc3-c3ccccc3O)ccc21` had a melting point of 161 to 163 °C.

In turn, `CCCCCCCCCCCC(=O)CO` gave a melting point of 52 to 54 °C.

`CN(C)C(=N)Nc1ccccc1-c1cccc(F)c1` registered a melting point of 109 to 110 °C.

In the case of `NC(=O)c1ncn2c1CN=C(c1ccccc1)c1cc(Cl)ccc1-2`, the melting point is 295 to 296 °C.

Compound `O=C(c1ccccc1)c1ccc(OCC(O)COCCCCCCCCOCC(O)COc2ccc(C(=O)c3ccccc3)c(O)c2)cc1O` (stereo not given) gave a melting point of 74 °C.

Regarding `CN(O)C(=O)c1ccc(NCCCc2ccccc2)cc1`, the melting point was 107 to 108 °C.

Turning to `O=C(O)[C@@H](CCN1C(=O)c2ccccc2C1=O)Oc1c(Br)cc(-c2c3ccccc3c(Br)c3sc4ccccc4c23)cc1Br`, the melting point was 215 to 217 °C.

Consider `CCc1cccc(C(O)c2nc(OC)cc(OC)n2)c1N` (stereo not given), for which the melting point lay within 85 to 86 °C.

`COC(OC)C1(C)CCc2c(C)c(O)c(C)c(C)c2O1` (stereo not given) yielded a melting point of 102 to 106 °C.

On to `CNc1nc(N2CCN(C)CC2)nc2ccc(Cl)cc12`, for which the melting point was 173 to 176 °C.

The compound `COC(=O)C=Cc1ccc2[nH]ccc2c1` yielded a melting point of 138 to 140 °C.

The compound `CCOC(=O)c1ccc(/C=C/C2CCCN2C(=O)OC(C)(C)C)cc1` (stereo not given) returned a melting point of 68 to 70 °C.

As to `CCOc1ccc(-c2nc(-c3cc(CNC)c(O)c(C(=O)O)c3)cs2)cc1OCC`, the melting point lay within 271 to 273 °C.

As for `CC(=O)NCC1CN(C(c2ccccc2)c2ccccc2)C1`, the melting point was in the range of 117 to 119 °C.

In turn, `CC(=CC(=O)c1cccnc1)NCC(O)COc1ccc(NC(=O)NC2CCCCC2)cc1` (stereo not given) yielded a melting point of 168 °C.

Take `COC(=O)C1(NC(=O)Cc2cc(-c3ccc(Cl)cc3)ccc2Cl)CCC(C)(C)CC1`: the melting point came to 128 °C.

Turning to `Fc1ccc(-c2cn(-c3ccncc3)c3ccccc23)cc1`, the melting point is 115 to 118 °C.

`COc1ccc(S(=O)c2ccccc2)cc1[N+](=O)[O-]` (stereo not given) came in with a melting point of 135 to 137 °C.

Take `CCOC(=O)c1cn(C2COC2)c2cc(F)c(F)c(OCc3ccccc3)c2c1=O`: the melting point was in the range of 220 to 222 °C.

For `O=S(=O)(CF)c1cccc(Br)c1Cl`, the melting point came out at 149 °C.

`O=C(c1ccc([N+](=O)[O-])cc1)N1CCC(OCc2ccc(F)cc2)CC1` gave a melting point of 120 °C.

Compound `O=C(O)CCCC=Cc1nn(-c2ccccc2)c2c1CCC2` registered a melting point of 130 to 131 °C.

In turn, `OCc1cn2c(n1)CN=C(c1ccccn1)c1cc(Cl)ccc1-2` had a melting point of 206 to 207 °C.

The compound `CCCCCCOc1ccc2c(c1)c(CC(=O)O)c(C)n2Cc1ccc(Cl)cc1` registered a melting point of 148 to 150 °C.

Consider `CCOC(=O)c1cc2c3c(ccc2[nH]1)OC[C@H](CO)O3`, for which the melting point is 152 to 153 °C.

The compound `Cc1ccc2c(c1)N(CC(=O)c1ccccc1C)C(=O)C(NC(=O)Nc1ccc(F)c(C(=O)O)c1)CN2C(=O)C(C)(C)C` (stereo not given) came in with a melting point of 225 to 228 °C.

On to `CC(C)Cc1c2c(nn1C)c(O)nc1ccccc12`, for which the melting point was greater than 280 °C.

For the compound `CCOC(=O)C(C)(C)n1c(=O)[nH]c2ccc([N+](=O)[O-])cc2c1=O`, the melting point lay in the range of 184 to 185 °C.

`O=C(Cc1ccc(F)cc1)NC1CCN(Cc2ccc(Cl)c(Cl)c2)CC1` displayed a melting point of 144 to 147 °C.

`Oc1cc2c3ccc(O)c(O)c3n(Cc3ccc(Br)cc3)c2cc1O` yielded a melting point of 249 to 252 °C.

Compound `CCCCCCCCCOc1ccc(-c2ccc(C3CCC(C#N)(CCCCCCCCC)CC3)cc2)cc1` (stereo not given) came in with a melting point of 86 °C.

In turn, `CCOP(=O)(Cc1cc(C=O)ccc1O)OCC` registered a melting point of 88 to 88.5 °C.

For the compound `O=c1[nH][nH]c(C(F)(F)F)c1Cc1ccc2ccccc2c1`, the melting point lay within 165 to 167 °C.

In the case of `Brc1ccc(-c2coc(-c3ccccn3)n2)cn1`, the melting point is 85 °C.

For `CNC(=O)N(O)Cc1ccc2c(c1)OCc1ccccc1C2=O`, the melting point is 155 to 157 °C.

For `O=c1oc(-c2ccccc2)cc(O)c1SCc1ccc2c(c1)OCO2`, the melting point is 162 to 164 °C.

`CC(C)(C)OC(=O)NC1CCC(CON2C(=O)c3ccccc3C2=O)C1` (stereo not given) returned a melting point of 162 to 163 °C.

`O=c1nc(-c2cnccn2)sc2ccccc12`: the melting point was in the range of 241 to 242 °C.

Turning to `CC(C)(COc1ccc(O)c(C(N)=O)c1)[N+](=O)[O-]`, the melting point lay within 145 to 148 °C.

In turn, `CC(C)(Cc1c2c(nn1CCO)c(N)nc1ccccc12)NS(C)(=O)=O` showed a melting point of 203 to 204 °C.

`Cc1nc(Nc2ccccc2)sc1-c1ccc(Cl)c([N+](=O)[O-])c1` returned a melting point of 162 to 165 °C.

Regarding `COCCOC(=O)NNC(=O)OCCOC`, the melting point was in the range of 71.3 to 76.5 °C.

`Cc1cc2c(cc1O)C(C)(C)CC1(CC(C)(C)c3cc(OCCO)c(C)cc3O1)O2` (stereo not given) registered a melting point of 186 to 188 °C.

Consider `CC(=O)OC1CSC(Oc2cncc(-c3ccnc(Cl)c3)c2)C(OC(C)=O)C1OC(C)=O` (stereo not given), for which the melting point was 105 to 108 °C.

The compound `Cc1nnc2ccc(-c3cccc(NC(C)C)c3)nn12` returned a melting point of 157 to 159 °C.

`Cc1cc(C)cc(NC(=O)Cc2ccc(OC(C)(C)C(=O)O)cc2)c1`: the melting point came to 85 °C.

`CC(C)SC1=C(Cl)CSS1=O` (stereo not given) registered a melting point of 60 °C.

For the compound `Cc1nc(-n2ccn(Cc3ccc(C(F)(F)F)cc3)c2=O)sc1C(=O)NCc1cccnc1`, the melting point lay within 163 to 164 °C.

Turning to `CCOC(=O)c1ccc(C#CCc2ccc3c(c2)C(C)(C)CCC3(C)C)cc1`, the melting point fell in the range of 59 to 60 °C.

On to `CC(C)NC(=O)N1CCC(Cc2ccc(NC3=NCCN3)cc2)CC1`, for which the melting point lay within 191 to 192 °C.

`CCCC(=O)NCCC1=C(Cc2ccccc2)Cc2ccc(OC)cc21` yielded a melting point of 127 to 129 °C.

As to `NS(=O)(=O)c1nc(-c2ccccc2F)ns1`, the melting point lay in the range of 177 to 179 °C.

Turning to `N#Cc1c(N2CCNCC2)c2cccnc2n(Cc2ccccc2)c1=O`, the melting point was 211 °C.

For the compound `C#CCC1(c2ccc(Cl)cc2)Cc2cc(OCC(=O)O)c(Cl)c(Cl)c2C1=O` (stereo not given), the melting point was in the range of 200 to 201 °C.

Consider `CC1=C(O)CCC(C)(C)C1=O`, for which the melting point is 112 to 114 °C.

In turn, `C=C(c1ccccc1OC)c1ccccc1OC` returned a melting point of 88 to 90 °C.

Compound `c1ccc2oc(NCc3ccncc3)nc2c1` had a melting point of 148 °C.

On to `CCc1ccc2c(O)c(-c3nnnn3C)cnc2c1`, for which the melting point is 270 to 273 °C.

The compound `COC(=O)C1(NC(=O)Cc2cc(-c3ccc(Cl)cc3)ccc2C)CCCC(C(F)(F)F)C1` (stereo not given) yielded a melting point of 149 °C.

Compound `Cc1c(NC(=O)C(CSC(=O)c2ccccc2)Cc2ccccc2)cccc1C(=O)O` (stereo not given) yielded a melting point of 204 to 205 °C.

As to `CCCn1c(=O)nc(SC)c2[nH]c(C3CCCC3)nc21`, the melting point was in the range of 258 to 259 °C.

As for `CC(C)NC(=O)OCC(=O)c1ccccc1`, the melting point is 108 to 110 °C.

Turning to `O=C(O)CCCCc1cc(O)c(O)cc1[N+](=O)[O-]`, the melting point fell in the range of 111 to 114 °C.

`N#Cc1ccc2nc(C(=O)NCc3cccc(CNC(=O)Cc4nc[nH]n4)c3)[nH]c(=O)c2c1`: the melting point is 207 to 208 °C.

On to `Brc1ccc(C2=NOCCS2)cc1`, for which the melting point was 114 to 115 °C.

Regarding `CCOC(=O)CCc1cc(Cl)ccc1C(=O)CCCNC(=O)CCCNC(C)=O`, the melting point is 95 °C.

Regarding `CC1C(=O)N(c2ccccc2)C(=S)N1Cc1ccc(Oc2ccccc2)cc1` (stereo not given), the melting point amounted to 122 °C.

Compound `COc1ccc(CC2=C(C)N=NC2=O)cc1OC1CCCC1` came in with a melting point of 186 to 187 °C.

Take `COC1=C(OC)C(=O)C2=C(CC(CCCCCCCCOc3ccc(Cl)cc3)C2)C1=O`: the melting point lay in the range of 64 to 66 °C.

`CC1(C)CC(=O)C(C(=O)Nc2cccc(Cl)c2)C(=O)C1`: the melting point lay within 89 to 91 °C.

As for `CN(C)c1sc2cc(OCc3ccccc3)ccc2c1C(=O)c1ccc(F)c(C(F)(F)F)c1`, the melting point is 164 to 167 °C.

In turn, `Cc1cc(-n2c(C)ccc2C)c(C)cc1N=CN(C)C` registered a melting point of 90 to 91 °C.

Take `O=C1c2cccc3cc(OCCO)cc(c23)C(=O)N1O`: the melting point lay in the range of 242 to 244 °C.
